Results as given in patent US5834452A, “1- or 6-hydroxylated steroids” (Roussel Uclaf, priority 1996, dated 1998).

Target: T1, Human progesterone receptor (HPR) (Homo sapiens, UniProt P06401)
T1 construct: made in house; host or cells: SF9 insect cells (ATCC CRL1711), baculovirus, lysate supernatant
T1 sequence (P06401 1-933): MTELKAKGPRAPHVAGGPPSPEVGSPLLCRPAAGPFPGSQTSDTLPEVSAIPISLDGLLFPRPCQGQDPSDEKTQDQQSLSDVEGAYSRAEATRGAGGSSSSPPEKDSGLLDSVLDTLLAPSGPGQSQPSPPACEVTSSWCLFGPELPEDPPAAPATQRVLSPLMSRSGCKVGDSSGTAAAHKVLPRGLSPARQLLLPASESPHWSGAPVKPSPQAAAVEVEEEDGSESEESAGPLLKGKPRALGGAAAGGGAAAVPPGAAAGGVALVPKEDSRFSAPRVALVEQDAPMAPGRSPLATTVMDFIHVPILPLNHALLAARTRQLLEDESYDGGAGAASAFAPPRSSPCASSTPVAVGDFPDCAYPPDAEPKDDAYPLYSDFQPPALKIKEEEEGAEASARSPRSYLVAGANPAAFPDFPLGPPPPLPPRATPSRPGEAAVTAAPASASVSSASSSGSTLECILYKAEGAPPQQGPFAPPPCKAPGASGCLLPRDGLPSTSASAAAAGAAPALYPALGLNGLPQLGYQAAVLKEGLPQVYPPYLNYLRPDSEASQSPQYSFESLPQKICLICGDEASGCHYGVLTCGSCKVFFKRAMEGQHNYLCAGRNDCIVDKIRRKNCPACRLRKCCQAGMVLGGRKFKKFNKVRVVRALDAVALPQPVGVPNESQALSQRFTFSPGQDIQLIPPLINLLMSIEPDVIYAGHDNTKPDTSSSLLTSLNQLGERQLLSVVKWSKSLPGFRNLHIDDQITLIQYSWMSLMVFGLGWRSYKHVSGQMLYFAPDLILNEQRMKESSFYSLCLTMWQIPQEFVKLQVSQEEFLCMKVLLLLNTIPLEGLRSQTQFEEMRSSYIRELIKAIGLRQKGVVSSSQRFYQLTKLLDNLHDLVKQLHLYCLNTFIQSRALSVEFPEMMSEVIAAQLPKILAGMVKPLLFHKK
Test: Relative bond affinity (RBA), recombinant human progestogen receptor, charcoal dextran technique
Assay type: binding
Details: 24 h at 0° C., Progesterone = 100
Source text: The human recombinant receptor (HGR, HPR, HAR, HMR, HER) was used.
Human progesterone receptor (HPR):
The recombinant human progestogen receptor was obtained by the superexpression in a cell system of insects--Baculovirus, according to the methodology described by Webb et al (Journal of Methods in Cell and Molecular Biology, (1990) Vol. 2 No. 4, p. 173-188) and the application of which was described for the expression of human hormonal receptors, for example the human glucocorticoid receptor (Srinivasan et al, Molecular Endocrinology, (1990) Vol. 4 No. 2, p. 209-216.
The BaculoGold Transfection Kit (PharMingen, reference 21000K) was used to insert the cDNA fragment described by Kastner et al (The EMBO Journal, (1990), Vol. 9 No. 5, p. 1603-1614), containing the region coding for the human progestogen receptor and to prepare the corresponding recombinant virus. The recombinant virus obtained in this way was used to express the progestogen receptor in SF9 insect cells (ATCC CRL1711), according to the known methodology cited previously.
2×10^7 to 2.5×10^7 SF9 cells were cultured in a 175 ml "Falcon" flask in the TNM-FH medium supplemented with 10% fetal calf serum (FCS) and with 50 micrograms/ml of gentamycin. After infection, then incubation at 27° C. for 40 to 42 hours, the cells were taken up in 1 ml of lysis buffer (1), lysed by 2 cycles of freezing-thawing (-80° C./ 0° C.), then centrifuged at 4° C. for 30 minutes at 20,900 g. The supernatant, containing the recombinant human progestogen receptor, was stored in liquid nitrogen in quantities of 1 ml.
The supernatant was diluted at the time of use with 10 mM Tris buffer, 0.25M saccharose, HCl pH 7.4 containing 0.1% of gelatin and then incubated at 0° C. for 24 hours with a constant concentration (T) of tritiated 17α, 21-dimethyl-19-nor-Δ^4,9 pregnadiene-3,20-dione in the presence of increasing concentrations of either unlabelled progesterone (0-2500×10^-9 M), or the unlabelled product to be tested (1 to 25000×10^-9 M). The concentration of bound tritiated 17,21-dimethyl-19-nor-Δ^4,9 -pregnadiene-3,20-dione (B) was then measured in each incubate using the charcoal dextran adsorption technique.
Calculation of the relative bond affinity (RBA).
The following two curves were drawn: the percentage of bound tritiated hormone B/BO as a function of the logarithm of the concentration of unlabelled reference hormone or as a function of the logarithm of the concentration of unlabelled test product. The straight line of the following equation was determined: […]
The relative bond affinity (RBA) of the test product was determined by the equation: […]

RBA, Human progestogen receptor	RBA, Human progestogen receptor (listed as product B)	Compound
12	moderate RBA	C[C@H](O)C(=O)[C@@]1(C)CC[C@H]2[C@@H]3C[C@@H](O)C4=CC(=O)CCC4=C3CC[C@@]21C [Product B, [6β, 17β-(S)]-6-hydroxy-17-(2-hydroxy-1-oxopropyl)-17-methyl-Δ^4,9-estradiene-3-one]
588		C[C@H](O)C(=O)[C@@]1(C)CC[C@H]2[C@@H]3CCC4=CC(=O)CCC4=C3CC[C@@]21C [Trimegestone, [17β-(S)]-17-(2-hydroxy-1-oxopropyl)-17-methyl-Δ^4,9-estradiene-3-one, reference compound]
